Test results as given in the supplement of paper PMC10331698.
± gives the standard deviation of the averaged measurements.

Assays:
Assay in all cases: level (log10 ratio to DMSO vehicle control); higher = higher biomarker level / cell amount than vehicle control
[1] = compound: O=C(O)C(F)(F)C(F)(F)C(F)(F)C(F)(F)C(=O)O [Octafluoroadipic acid] (in DMSO)
Experimental: (§1)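 BioMAP Diversity Plus panel of 12 human primary cell co-culture systems (3C, 4H, LPS, SAg, BT, BF4T, BE3C, CASM3C, HDF3CGF, KF3CT, MyoF, Mphg). Compounds were added 1 h before stimulation and left for 24 h (MyoF 48 h; BT 72 h for soluble read-outs or 6 d for IgG). Biomarkers were read by ELISA, cytotoxicity by SRB, PBMC viability and proliferation by Alamar Blue. Each well value was divided by the mean of 8 DMSO control wells on the same plate and log10 transformed; duplicate blinded samples were tested at 4 concentrations.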

[2] = compound: OCC(F)(F)OC(F)(F)C(F)(F)OC(F)(F)C(F)(F)OC(F)(F)CO [1H,1H,11H,11H-Perfluorotetraethylene glycol] (in DMSO)
Experimental: as §1

[3] = compound: O=C(O)C(F)(OC(F)(F)C(F)(F)C(F)(F)F)C(F)(F)F [Ammonium perfluoro-2-methyl-3-oxahexanoate] (in Water)
Experimental: as §1

[4] = compound: CCOC(=O)CC(=O)C(F)(F)C(F)(F)F [Ethyl pentafluoropropionyl acetate] (in DMSO)
Experimental: as §1

[5] = compound: O=S(=O)(O)C(F)(F)C(F)(F)OC(F)(F)C(F)(F)F [Perfluoro(2-ethoxyethane)sulfonic acid] (in DMSO)
Experimental: as §1

[6] = compound: OCC(F)(F)C(F)(F)C(F)(F)C(F)F [1H,1H,5H-Perfluoropentanol] (in DMSO)
Experimental: as §1

[7] = compound: O=C(O)C(F)(F)C(F)(F)C(F)(F)C(F)(F)C(F)(F)C(F)(F)C(F)(F)C(F)(F)F [Perfluorononanoic acid] (in DMSO)
Experimental: as §1

Row | Test System | level (log10) ([1]; 6700 nM) | level (log10) ([1]; 20000 nM) | level (log10) ([1]; 60000 nM) | level (log10) ([2]; 6700 nM) | level (log10) ([2]; 20000 nM) | level (log10) ([2]; 60000 nM) | level (log10) ([3]; 6700 nM) | level (log10) ([3]; 20000 nM) | level (log10) ([3]; 60000 nM) | level (log10) ([4]; 6700 nM) | level (log10) ([4]; 20000 nM) | level (log10) ([4]; 60000 nM) | level (log10) ([5]; 6700 nM) | level (log10) ([5]; 20000 nM) | level (log10) ([5]; 60000 nM) | level (log10) ([6]; 6700 nM) | level (log10) ([6]; 20000 nM) | level (log10) ([6]; 60000 nM) | level (log10) ([7]; 6700 nM) | level (log10) ([7]; 20000 nM)
1 | lMphg:CXCL8/IL-8 | 0.009 ± 0.0099 | -0.0015 ± 0.028 | 0.0495 ± 0.091 | -0.022 ± 0.017 | -0.034 ± 0.017 | -0.0265 ± 0.032 | 0.137 ± 0.0021 | 0.194 ± 0.0078 | 0.261 ± 0.025 | -0.0295 ± 0.023 | -0.01 ± 0.0042 | 0.0095 ± 0.049 | 0.0055 ± 0.005 | 0.034 ± 0.018 | 0.118 ± 0.016 | 0.018 ± 0.017 | -0.0005 ± 0.019 | 0.035 ± 0.0028 | 0.093 ± 0.03 | 0.186 ± 0.06
2 | HDF3CGF:CXCL8/IL-8 | -0.0005 ± 0.0078 | 0.003 ± 0.0014 | 0.0065 ± 0.0092 | 0.0015 ± 0.028 | -0.0025 ± 0.011 | 0.0115 ± 0.0064 | -0.0135 ± 0.015 | 0.001 ± 0.011 | 0.0045 ± 0.0035 | -0.005 ± 0.0028 | -0.0045 ± 0.011 | -0.002 ± 0.021 | -0.015 ± 0.0028 | -0.0075 ± 0.0064 | 0.0045 ± 0.0035 | -0.0045 ± 0.0064 | -0.002 ± 0.0014 | 0.0095 ± 0.032 | -0.0065 ± 0.0064 | -0.001 ± 0.0099
3 | MyoF:alpha-SM Actin | 0.007 ± 0.044 | -0.0105 ± 0.052 | 0.007 ± 0.033 | -0.0125 ± 0.026 | -0.057 ± 0.0042 | -0.167 ± 0.037 | 0.001 ± 0.011 | 0.0005 ± 0.022 | -0.0035 ± 0.0035 | -0.0145 ± 0.03 | -0.0235 ± 0.0078 | -0.019 ± 0.013 | 0.006 ± 0.025 | 0.0075 ± 0.0078 | -0.017 ± 0.0028 | -0.04 ± 0.059 | -0.0045 ± 0.018 | 0 ± 0.017 | -0.0165 ± 0.028 | -0.0645 ± 0.042
4 | 3C:CD142/Tissue Factor | 0.02 ± 0.061 | 0.0375 ± 0.067 | 0.0085 ± 0.061 | -0.0315 ± 0.037 | -0.009 ± 0.0014 | -0.013 ± 0.05 | 0.0735 ± 0.012 | 0.0805 ± 0.0078 | 0.0805 ± 0.00071 | -0.006 ± 0.0071 | -0.019 ± 0.031 | -0.033 | 0.013 ± 0.0057 | -0.001 ± 0.024 | 0.017 ± 0.0042 | -0.0095 ± 0.00071 | -0.014 ± 0.025 | 0.021 ± 0.0085 | -0.0555 ± 0.0021 | -0.0455 ± 0.032
5 | HDF3CGF:Collagen I | -0.008 ± 0.059 | -0.011 ± 0.024 | 0.042 ± 0.021 | -0.021 ± 0.065 | -0.0405 ± 0.053 | -0.116 ± 0.0057 | -0.029 ± 0.031 | 0.0015 ± 0.005 | -0.0095 ± 0.0092 | -0.0205 ± 0.021 | -0.003 ± 0.051 | -0.0355 ± 0.0092 | -0.046 ± 0.024 | -0.037 ± 0.031 | 0.017 ± 0.055 | -0.0375 ± 0.039 | -0.0305 ± 0.037 | 0.0585 ± 0.021 | 0.0345 ± 0.005 | -0.0715 ± 0.036
6 | CASM3C:CXCL8/IL-8 | -0.0005 ± 0.0092 | -0.002 ± 0.0071 | 0.0045 ± 0.022 | 0.002 ± 0.016 | -0.0085 ± 0.016 | -0.004 ± 0.011 | 0.005 ± 0.0042 | 0.034 ± 0.024 | 0.056 ± 0.024 | 0.0045 ± 0.0035 | 0 | 0.0035 ± 0.0078 | -0.0095 ± 0.00071 | -0.0055 ± 0.0078 | 0.0265 ± 0.005 | -0.0025 ± 0.021 | 0.0065 ± 0.047 | 0.015 ± 0.059 | 0.0075 ± 0.013 | 0.031 ± 0.033
7 | KF3CT:CXCL8/IL-8 | -0.0015 ± 0.015 | 0.0105 ± 0.0092 | 0.012 ± 0.017 | -0.0085 ± 0.022 | -0.0255 ± 0.021 | -0.0125 ± 0.011 | 0.0175 ± 0.036 | 0.0135 ± 0.00071 | 0.0165 ± 0.0092 | -0.012 ± 0.018 | -0.0155 ± 0.0021 | -0.0005 ± 0.029 | 0.0305 ± 0.016 | 0.0045 ± 0.022 | 0.036 ± 0.016 | 0.0155 ± 0.016 | 0.0205 ± 0.021 | 0.0415 ± 0.049 | -0.0045 ± 0.016 | 0.013 ± 0.028
8 | HDF3CGF:PAI-I | -0.008 ± 0.017 | -0.017 ± 0.0071 | 0.0115 ± 0.037 | -0.0265 ± 0.033 | -0.0285 ± 0.013 | -0.036 ± 0.027 | -0.0825 ± 0.052 | -0.0995 ± 0.013 | -0.051 ± 0.054 | -0.01 ± 0.025 | 0.004 ± 0.024 | 0.031 ± 0.062 | 0.025 ± 0.0014 | -0.003 ± 0.0071 | -0.021 ± 0.013 | -0.111 ± 0.12 | -0.047 ± 0.16 | -0.0365 ± 0.096 | 0.037 ± 0.062 | 0.0765 ± 0.064
9 | HDF3CGF:TIMP-1 | -0.0055 ± 0.03 | 0.022 ± 0.059 | 0.023 ± 0.055 | -0.023 ± 0.089 | 0.0015 ± 0.11 | -0.073 ± 0.092 | 0.025 ± 0.0028 | 0.014 ± 0.024 | -0.0135 ± 0.0064 | -0.0085 ± 0.037 | -0.007 ± 0.0071 | -0.0305 ± 0.012 | 0.0415 ± 0.067 | 0.048 ± 0.04 | 0.0955 ± 0.071 | -0.012 ± 0.031 | -0.0155 ± 0.025 | 0.006 ± 0.027 | -0.0225 ± 0.026 | -0.039 ± 0.03
10 | BE3C:Keratin 8/18 | -0.0095 ± 0.0078 | -0.0105 ± 0.025 | 0.0095 ± 0.0021 | 0.0025 ± 0.049 | -0.0065 ± 0.00071 | -0.023 ± 0.025 | -0.042 ± 0.0042 | -0.019 ± 0.024 | -0.0165 ± 0.0092 | 0.0105 ± 0.022 | 0.0095 ± 0.033 | 0.001 ± 0.0085 | -0.007 ± 0.013 | -0.0105 ± 0.013 | -0.01 ± 0.011 | -0.0225 ± 0.011 | 0.0135 ± 0.005 | 0.0035 ± 0.025 | -0.0335 ± 0.04 | -0.0365 ± 0.032
11 | MyoF:Collagen IV | -0.0175 ± 0.0064 | -0.016 ± 0.016 | 0.002 ± 0.021 | -0.012 ± 0.0014 | -0.0015 ± 0.011 | 0.0245 ± 0.021 | -0.013 ± 0.0057 | 0.0045 ± 0.011 | 0.0105 ± 0.012 | 0.0045 ± 0.018 | 0.01 ± 0.0028 | 0.0045 ± 0.018 | 0.0015 ± 0.0021 | 0.004 ± 0.016 | 0.0315 ± 0.04 | -0.001 ± 0.0014 | -0.0005 ± 0.0064 | 0.0095 ± 0.00071 | 0.0215 ± 0.022 | 0.221 ± 0.063
12 | 3C:CD54/ICAM-1 | -0.007 ± 0.014 | -0.0075 ± 0.018 | -0.0065 ± 0.013 | 0.0015 ± 0.00071 | -0.009 ± 0.0071 | 0.007 | -0.0255 ± 0.0092 | 0.0065 ± 0.00071 | 0.0055 ± 0.011 | -0.0015 ± 0.012 | -0.01 ± 0.016 | 0.0025 ± 0.022 | -0.0105 ± 0.028 | -0.0095 ± 0.023 | -0.01 ± 0.024 | -0.028 ± 0.0085 | -0.003 ± 0.0099 | 0.0125 ± 0.023 | -0.028 ± 0.0014 | -0.023 ± 0.0099
13 | HDF3CGF:M-CSF | -0.0095 ± 0.005 | -0.01 ± 0.0085 | 0.0255 ± 0.036 | -0.036 ± 0.083 | -0.121 ± 0.098 | -0.261 ± 0.046 | -0.0345 ± 0.00071 | -0.0245 ± 0.013 | -0.0595 ± 0.035 | -0.022 ± 0.017 | -0.034 ± 0.037 | -0.0135 ± 0.094 | 0.004 ± 0.011 | -0.0075 ± 0.0092 | -0.009 ± 0.016 | -0.0405 ± 0.067 | -0.034 ± 0.071 | -0.0205 ± 0.053 | 0.0115 ± 0.025 | -0.028 ± 0.028
14 | 3C:CD106/VCAM-1 | 0.0005 ± 0.019 | -0.0015 ± 0.0092 | 0.0055 ± 0.00071 | -0.01 ± 0.0057 | -0.015 ± 0.0071 | -0.004 ± 0.011 | -0.0065 ± 0.0035 | -0.0245 ± 0.0035 | -0.0155 ± 0.00071 | -0.0045 ± 0.0064 | -0.008 ± 0.0057 | -0.015 ± 0.0071 | 0.008 ± 0.033 | 0.002 ± 0.0071 | 0 ± 0.0085 | -0.0245 ± 0.0078 | -0.012 | 0.0075 ± 0.0035 | -0.0205 ± 0.016 | -0.0195 ± 0.023
15 | HDF3CGF:TIMP-2 | 0.007 ± 0.0085 | 0.02 ± 0.023 | 0.0055 ± 0.0078 | -0.0285 ± 0.011 | -0.046 ± 0.11 | -0.121 ± 0.07 | 0.0405 ± 0.07 | 0.0435 ± 0.013 | -0.0185 ± 0.079 | -0.05 ± 0.044 | -0.012 ± 0.024 | -0.069 ± 0.011 | -0.011 ± 0.0099 | -0.0305 ± 0.015 | 0.02 ± 0.059 | -0.0525 ± 0.086 | -0.0265 ± 0.067 | -0.0175 ± 0.087 | 0.0105 ± 0.033 | 0.0805 ± 0.026
